Results reported in patent US12421212B2, “Substituted benzenecarboxamides as IL-17A modulators” (DiCE Alpha, Inc., priority 2019, dated 2025).

Biological target: T1, IL-17A/A (Homo sapiens, UniProt Q16552)
T1 construct: purchased Genscript Z03228
T1 sequence (Q16552 24-155): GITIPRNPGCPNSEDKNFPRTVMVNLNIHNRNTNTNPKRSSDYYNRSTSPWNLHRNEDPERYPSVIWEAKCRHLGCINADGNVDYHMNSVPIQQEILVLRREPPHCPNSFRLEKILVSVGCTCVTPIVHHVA
Test: IL-17A/A HEK-Blue Cell Assay
Type: cell-based
Details: HEK-Blue IL-17A reporter cell line, SEAP readout at A630, 20 hours incubation with IL-17A/A, top concentration 10 uM, 1 uM or 0.3 uM; for IC50: read-out: IL-17A/A inhibition (pIC50) (converted)
Description: The HEK-Blue IL-17A reporter cell line (Fisher #NC1408637) was used for cell-based IL-17A/A inhibition assays. Cells were grown and prepared for assays according to the manufacturer's instructions. This cell line consists of HEK 293 cells that were designed to expressed IL-17RA, IL-17RC, and the ActI adapter molecule, the combination of which, when stimulated by IL-17A/A activates a NFκB promoter and drives expression of a recombinant Secreted Alkaline Phosphatase (SEAP) geneprotein. Media from the cells is then added to a development reagent (Quanti-Blue Substrate, Fisher #NC9711613), and read at A630.
Compounds were titrated in DMSO, with a top final compound concentration of 10 uM, 1 uM, or 0.3 uM, and added to the cells immediately before adding IL-17A/A (Genscript #Z03228). The cells, compound, and IL-17A/A were then incubated for 20 hours before media was removed for SEAP analysis. The resulting inhibition curve was then analyzed using Graphpad Prism 7.0, and IC50 values were determined using a 4-parameter nonlinear fit. DMSO was added to a universal final concentration of 0.1% to optimize background.

Structure (SMILES) | IC50 [µM] | IL-17A/A inhibition (pIC50)
CCC(=O)N[C@@H](C(=O)N1CCN(C)CC1)[C@H](C)c1ccc(NC(=O)[C@@H](NC(=O)c2ccnn2CC)[C@H]2CC[C@H](C)CC2)c(F)c1 [Compound 544] |  | X3a (compounds were evaluated up to 0.3 uM and did not inhibit activity by >80%, however they showed some activity at 0.3 uM (less than 80% and more than 20%))
CCC(=O)N[C@@H](C(=O)N1CCC(C)(O)CC1)[C@@H](C)c1ccc(NC(=O)[C@@H](NC(=O)C(F)(F)c2cccc(C#N)c2)C2CCCCCC2)c(F)c1 [Compound 355] | < 0.01 | 
CCC(=O)N[C@@H](C(=O)N1CCN(C)CC1)[C@@H](C)c1ccc(NC(=O)C(NC(=O)c2ccnn2CC)C(C)c2ccccc2Cl)c(F)c1 (stereo partly drawn) [Compound 520] |  | X1b (compounds were evaluated up to 10 uM and inhibited activity at 10 uM by less than 20%)
CCC(=O)NC(C(=O)NCC1CCC1)C(C)c1ccc(NC(=O)[C@@H](NC(=O)c2ccnn2CC)[C@H]2CC[C@H](C)CC2)c(F)c1 (single isomer, unassigned) [Compound 662] |  | X3a (compounds were evaluated up to 0.3 uM and did not inhibit activity by >80%, however they showed some activity at 0.3 uM (less than 80% and more than 20%))
CCC(=O)N[C@H](Cc1ccc(NC(=O)[C@H](CC2CCCCC2)NC(=O)c2ccnn2CC)c(F)c1)C(=O)N1CCN(C)CC1 [Compound 730] |  | X2b (compounds were evaluated up to 1 uM and inhibited activity at 1 uM by less than 20%)
CCC(=O)N[C@H](Cc1ccc(NC(=O)[C@@H](NC(=O)c2ccnn2CC)c2cccc3ccccc23)c(F)c1)C(=O)N1CCN(C)CC1 [Compound 698] |  | X2b (compounds were evaluated up to 1 uM and inhibited activity at 1 uM by less than 20%)
CCC(=O)N[C@H](Cc1ccc(NC(=O)[C@H](Cc2ccccc2Cl)NC(=O)C(F)(F)c2ccc(OC)nc2)c(F)c1)C(=O)N1CCN(C)CC1 [Compound 731] |  | X2b (compounds were evaluated up to 1 uM and inhibited activity at 1 uM by less than 20%)
CCC(=O)N[C@@H](C(=O)N1CCN(C)CC1)[C@@H](C)c1ccc(NC(=O)[C@@H](NC(=O)c2ccnn2-c2ccccc2)C2CCCCC2)c(F)c1 [Compound 738] |  | X2a (compounds were evaluated up to 1 uM and did not inhibit activity by >80%, however they showed some activity at 1 uM (less than 80% and more than 20%))
CCC(=O)N[C@@H](C(=O)N1CCN(C)CC1)[C@@H](CC)c1ccc(NC(=O)[C@@H](NC(=O)C(F)(F)c2ccc(OC)nc2)C2CCCCCC2)cc1 [Compound 227] | 0.01 to 0.1 | 
CCC(=O)N[C@@H](C(=O)N1CCN(C)CC1)[C@@H](C)c1ccc(NC(=O)C(NC(=O)c2ccnn2CC)C(C)C2CCC(F)(F)CC2)c(F)c1 (single isomer, unassigned) [Compound 589] |  | X3b (compounds were evaluated up to 0.3 uM and inhibited activity at 0.3 uM by less than 20%)
CCn1nccc1C(=O)N[C@H](C(=O)Nc1ccc([C@H](C)[C@@H](NC(=O)c2cnns2)C(=O)N2CCN(C)C3(CC3)C2)cc1F)[C@H]1CC[C@H](C)CC1 [Compound 439] | 0.01 to 0.1 | 
CCC(=O)N[C@@H](C(=O)N1CCN(C)CC1)[C@@H](C)c1ccc(NC(=O)C(NC(=O)c2nonc2CC)C(C)c2ccccc2Cl)c(F)c1 (stereo partly drawn) [Compound 522] |  | X1b (compounds were evaluated up to 10 uM and inhibited activity at 10 uM by less than 20%)
CCC(=O)N[C@@H](C(=O)N1CCN(C)CC1)[C@@H](C)c1ccc(NC(=O)C(NC(=O)c2nonc2CC)C(C)C2CCC(F)(F)CC2)c(F)c1 (single isomer, unassigned) [Compound 588] |  | X3b (compounds were evaluated up to 0.3 uM and inhibited activity at 0.3 uM by less than 20%)
CCC(=O)N[C@@H](C(=O)N1CCN(CC)C(C)(C)C1)[C@@H](C)c1ccc(NC(=O)[C@@H](NC(=O)c2nonc2CC)[C@H]2CC[C@H](C)CC2)c(F)c1 [Compound 466] |  | A (compounds having a pIC50 of greater than or equal 8 as A)
CCC(=O)N[C@@H](C(=O)N1CCN(Cc2ccccn2)CC1)[C@@H](C)c1ccc(NC(=O)[C@@H](NC(=O)c2ccnn2CC)[C@H]2CC[C@H](C)CC2)c(F)c1 [Compound 341] | 0.01 to 0.1 | 
CCC(=O)N[C@@H](C(=O)N1C[C@@H](C)N(C)[C@@H](C)C1)[C@@H](C)c1ccc(NC(=O)[C@@H](NC(=O)c2nonc2CC)[C@H]2CC[C@H](C)CC2)c(F)c1 [Compound 452] | < 0.01 | 
CCC(=O)N[C@@H](C(=O)N1CCN(C)CC1)[C@@H](C)c1ccc(NC(=O)[C@@H](NC(=O)C(F)(F)c2cccc(C#N)c2)C2CCC(F)(F)CC2)c(F)c1 [Compound 263] | < 0.01 | 
CCC(=O)NC(C(=O)N1CCN(C)CC1)C(C)c1ccc(NC(=O)C(NC(=O)C(F)(F)c2cnc(OC)nc2)C2CCC(C)CC2)c(F)c1 (stereo not drawn) [Compound 405] | 0.01 to 0.1 | 
CCC(=O)N[C@@H](C(=O)N1CCN(C)CC1)[C@@H](C)c1ccc(NC(=O)[C@@H](NC(=O)c2nonc2CC)[C@H]2CC[C@H](C)CC2)c(F)c1 [Compound 278] | < 0.01 | 
CCn1nccc1C(=O)N[C@H](C(=O)Nc1ccc([C@H](C)[C@@H](NC(=O)NC2CC2)C(=O)N2CCN(C)CC2)cc1F)C1CCCCCC1 [Compound 338] | < 0.01 | 
CCC(=O)N[C@@H](C(=O)N1CC(N(C)C)C1)[C@@H](C)c1ccc(NC(=O)[C@@H](NC(=O)c2ccnn2CC)C2CCCCCC2)c(F)c1 [Compound 356] | 0.01 to 0.1 | 
CCC(=O)N[C@@H](C(=O)N1CCN(C)CC1)[C@@H](C)c1ccc(NC(=O)[C@@H](NC(=O)C(F)(F)c2cccc(NS(C)(=O)=O)c2)C2CCCCC2)c(F)c1 [Compound 251] | 0.01 to 0.1 | 
CCC(=O)N[C@@H](C(=O)N1CCC(CC(=O)OC(C)(C)C)CC1)[C@@H](C)c1ccc(NC(=O)[C@@H](NC(=O)c2ccnn2CC)[C@H]2CC[C@H](C)CC2)c(F)c1 [Compound 421] | 0.01 to 0.1 | 
CCC(=O)N[C@@H](C(=O)N1CCN(C)CC1)[C@@H](C)c1ccc(NC(=O)C(NC(=O)c2ccnn2CC)C(CC)c2ccc(Cl)cc2)c(F)c1 (single isomer, unassigned) [Compound 560] |  | X2b (compounds were evaluated up to 1 uM and inhibited activity at 1 uM by less than 20%)
CCC(=O)N[C@@H](C(=O)N1CCN(C)CC1)[C@@H](C)c1ccc(NC(=O)[C@@H](NC(=O)c2ccoc2C(C)C)C2CCCCCC2)c(F)c1 [Compound 272] | < 0.01 | 
CCC(=O)N[C@@H](C(=O)N1CCN(C)CC1(C)C)[C@@H](C)c1ccc(NC(=O)[C@@H](NC(=O)c2nonc2CC)[C@H]2CC[C@H](C)CC2)c(F)c1 [Compound 458] | < 0.01 | 
CCC(=O)N[C@H](Cc1ccc(NC(=O)[C@@H](NC(=O)c2c(CO)noc2C)C2CCCCC2)c(F)c1)C(=O)N1CCN(C)CC1 [Compound 777] |  | X1b (compounds were evaluated up to 10 uM and inhibited activity at 10 uM by less than 20%)

The next lines start with results.

IC50 [µM] | Structure (SMILES) | IL-17A/A inhibition (pIC50)
0.1 to 10 | CCn1nccc1C(=O)N[C@H](C(=O)Nc1ccc([C@H](C)[C@@H](NC(=O)NC)C(=O)N2CCN(C)CC2)cc1F)C1CCCCC1 [Compound 636] | 
< 0.01 | CCc1nonc1C(=O)N[C@H](C(=O)Nc1ccc([C@H](C)[C@@H](NC(=O)COC)C(=O)N2CCN(C)CC2)cc1F)[C@H]1CC[C@H](C)CC1 [Compound 499] | 
0.1 to 10 | CCC(=O)N[C@H](Cc1ccc(NC(=O)[C@@H](NC(=O)c2ccnn2CC(C)C)C2CCCCC2)c(F)c1)C(=O)N1CCN(C)CC1 [Compound 646] | 
0.01 to 0.1 | CCC(=O)N[C@@H](C(=O)N1CCN(C)CC1)[C@@H](C)c1ccc(NC(=O)[C@@H](NC(=O)c2nonc2OC)[C@H]2CC[C@H](C)CC2)c(F)c1 [Compound 551] | 
0.1 to 10 | CCC(=O)N[C@H](Cc1ccc(NC(=O)[C@@H](NC(=O)c2ccnn2CC)C2CCCCC2)c(C)c1)C(=O)N1CCN(C)CC1 [Compound 766] | 
0.1 to 10 | CCC(=O)N[C@@H](C(=O)N1CCN(C)CC1)[C@@H](C)c1ccc(NC(=O)[C@@H](NC(=O)c2ccnn2CC)[C@H](OC)c2ccc(F)cc2)c(F)c1 [Compound 610] | 
0.1 to 10 | CCC(=O)N[C@H](Cc1ccc(NC(=O)[C@@H](NC(=O)c2cncn2CC)C2CCCCC2)c(F)c1)C(=O)N1CCN(C)CC1 [Compound 761] | 
0.1 to 10 | CCn1nccc1C(=O)N[C@H](C(=O)Nc1ccc([C@H](C)[C@@H](NC(=O)CC#N)C(=O)N2CCN(C)CC2)cc1F)C1CCCCC1 [Compound 665] | 
0.01 to 0.1 | CCc1nonc1C(=O)N[C@H](C(=O)Nc1ccc([C@H](C)[C@@H](NC(=O)[C@@H]2CCCO2)C(=O)N2CCN(C)CC2)cc1F)[C@H]1CC[C@H](C)CC1 [Compound 498] | 
0.01 to 0.1 | CCn1nccc1C(=O)N[C@H](C(=O)Nc1ccc([C@H](C)[C@@H](NC(=O)C2CC2)C(=O)N2CCN(C)CC2)cc1F)[C@H]1CC[C@H](C)CC1 [Compound 469] | 
0.01 to 0.1 | CCn1nccc1C(=O)N[C@H](C(=O)Nc1ccc([C@H](C)[C@@H](NC(=O)OC)C(=O)N2CCN(C)CC2)cc1F)[C@H]1CC[C@H](C)CC1 [Compound 483] | 
0.1 to 10 | CCC(=O)N[C@H](Cc1ccc(NC(=O)[C@@H](NC(=O)c2ccnn2CC)C2CCCCC2)cc1Cl)C(=O)N1CCN(C)CC1 [Compound 691] | 
